Data on five compounds can be found in the NIST ThermoML archive (doi:10.1016/j.fluid.2010.04.010).

The data set is described as follows: activity coefficient (dimensionless); of the first substance listed, at infinite dilution; xn = mol fraction of the nth substance listed. The following applies: Liquid, Dilutor technique, x1 = 0.

Molecules are shown by their SMILES. ± gives the expanded uncertainty stated by the source.

Consider `c1ccccc1` [benzene] + CCCCCCn1cc[n+](C)c1.F[B-](F)(F)F, for which the activity coefficient worked out at 1.385 ± 0.004 (303.15 K), 1.446 ± 0.004 (313.15 K), 1.562 ± 0.004 (323.15 K) and 1.912 ± 0.004 (333.15 K).
As for `c1ccccc1` [benzene] + CCCCn1cc[n+](C)c1.F[B-](F)(F)F, the activity coefficient runs as follows: (313.15 K) 2.341 ± 0.004; (323.15 K) 2.246 ± 0.004; (333.15 K) 2.218 ± 0.004.
Consider `c1ccccc1` [benzene] + CCCCCC[n+]1cccc(C)c1.O=S(=O)([N-]S(=O)(=O)C(F)(F)F)C(F)(F)F, for which the activity coefficient runs as follows: (303.15 K) 0.673 ± 0.004; (313.15 K) 0.683 ± 0.004; (323.15 K) 0.691 ± 0.004; (333.15 K) 0.701 ± 0.004.
The matching figures for `C1=CCCCC1` [cyclohexene] + CCCCCC[n+]1cccc(C)c1.O=S(=O)([N-]S(=O)(=O)C(F)(F)F)C(F)(F)F: 3.337 ± 0.004, 3.205 ± 0.004, 3.131 ± 0.004 and 3.018 ± 0.004.
The matching figures for `C1=CCCCC1` [cyclohexene] + CCCCCCn1cc[n+](C)c1.F[B-](F)(F)F: 7.74 ± 0.004, 7.632 ± 0.004, 7.496 ± 0.004 and 7.052 ± 0.004.
